Experimental data: US20240075004A1, “VERY-LONG-CHAIN POLYUNSATURATED FATTY ACIDS, ELOVANOID HYDROXYLATED DERIVATIVES, AND METHODS OF USE” (The Board of Supervisors of Louisiana State University and …, priority 2020, published 2024)

How the values were obtained:
[1] = methyl ester or sodium salt, cited from earlier work; for infarct volumes: administered 1 hour following 2 hours of ischemia by MCA occlusion; for cell survival / neurovascular unit disruption: administered 1 hour following 2 hours of ischemia
primary human RPE cells = experiment: Primary human RPE cells challenged with OAβ: SA-β-Gal staining and qPCR; assay type: cell-based; conditions: 10 μM OAβ; qPCR after 3 days, SA-β-Gal after 7 days
Protocol: All experiments with primary human RPE cells were approved by the Institutional Review Board of LSUHNO and conducted in accordance with NIH guidelines. Cells were collected from anonymous donors provided by eye banks. Briefly, globes of a person, without eye pathology were obtained from NDRI within 24 hours after death from head trauma. Globes were opened, and RPE cells harvested and cultured (1, 2) and grown in MEM medium supplemented with 10% FBS, 5% NCS, non-essential amino acids, Penicillin-Streptomycin (100 U/mL), human fibroblast growth factor 10 ng/ml and incubated at 37° C. with a constant supply of 5% CO2. Cells integrity was validated as in previous study (3). For oligomeric Aβ treatment, cells were seeded in the 6-well plates, 30.000 cells/cm2. After 2 days, sub-confluent cells were treated with 10 μM OAβ or with PBS (vehicle control).
Aβ (1-42) (HFIP-treated, ANASPEC Company, Fremont, CA, USA, Cat AS-64129) was resuspended by adding 1% NH4OH/Water and DMSO to obtain a concentration 500 μM and sonicated for 10 min. […]
Cells were visualized using SA-β-Gal staining kit (Cat 9860, Cell Signaling Technology, MA, USA). […] Pictures were taken under brightfield microscope (Nikon Eclipse TS100) 200× magnification after the development of blue color, and cells counted in 10 different random fields per well. […]

[2] = system: senescence, autophagy, AMD, ECM remodeling and apoptosis genes; experiment: RPE and retina gene expression (qPCR) after subretinal OAβ (1-42) injection; assay type: in vivo, C57BL/6J WT mice; conditions: OAβ subretinally administered in WT mice
Protocol: (§1) All animal experiments were performed according to ARVO Statement for the Use of Animals in Ophthalmic and Vision Research, and the protocol was approved by LSU Health New Orleans' Institutional Animal Care and Use Committee (IACUC). 6-month-old 5×FAD mice (stock number: 34848-JAX, The Jackson Laboratory, Bar Harbor, ME, USA), co-overexpress FAD mutant forms of human amyloid precursor protein (the Swedish mutation: K670N, M671L; the Florida mutation: I716V; and the London mutation: V7171) and presenilin 1 (PS1, encoded by Psen1: M146L, L286V) transgenes under transcriptional control of the neuron-specific mouse Thy1 promoter. 5×FAD mice were hemizygotes with respect to the transgenes and non-transgenic WT littermates. Genotyping was performed by PCR of tail DNA. All analyses were carried out blind with respect to the mice genotype. […]
For the in vivo experiments, eyeballs were enucleated and anterior segment containing the cornea, lens and iris removed and the retina separated from the rest of the eyecup (RPE/choroid). […] Quantitative PCR was performed in a CFX-384 Real-Time PCR system (Bio-Rad). The expression of target genes was normalized to the geometric mean of housekeeping genes and relative expression was calculated by the comparative threshold cycle method (ΔΔCT).

p16INK4a = p16INK4a western blots of RPE/Choroid after subretinal OAβ injection; assay type: in vivo, C57BL/6J WT mice; conditions: elevated by OAβ injection; subretinal co-injection 200 ng with 10 μM OAβ, topical drops 200 nM twice a day; day 7
Protocol: as §1, with “genotype. For the subretinal injection, 6-month-old C57BL/6J mice were anesthetized by an intraperitoneal injection of ketamine/xylazine, pupils dilated with 1.0% tropicamide (Akorn, IL, USA); and 0.5% Proparacaine Hydrochloride (Akorn) was applied for topical anesthesia.” for “genotype.”
Samples were lysed by RIPA buffer and protein determined by Bradford assay (Bio-Rad, Hercules, CA, USA). […] Densitometry data were statistically analyzed at 95% confidence level.

Row | SMILES | infarct volumes [1] | cell survival [1] | neurovascular unit disruption [1] | OAβ-altered RPE cell morphology, SASP (SA-β-Gal staining) and expression of senescence, AMD, matrix metalloproteinase and autophagy-related genes (primary human RPE cells) | OAβ-activated senescence program (p16INK4a, MMP1, p53, p21, p27, Il-6 gene expression, SASP secretome) followed by RPE and PRC demise [2] | expression of the key senescence marker p16INK4a (western blots of RPE/Choroid) (p16INK4a)
1 | CC/C=C\C[C@H](O)\C=C/C=C/C=C/[C@H](O)C/C=C\C/C=C\CCCCCCCCCCCCC(=O)O [ELV-N-32] | reduced | promoted | diminished | reverted these effects | blunt these events and elicit protection to both cells | down regulated
2 | CC/C=C\C[C@H](O)\C=C/C=C/C=C/[C@H](O)C/C=C\C/C=C\CCCCCCCCCCCCCCC(=O)O [ELV-N-34] | reduced | promoted | diminished | reverted these effects | blunt these events and elicit protection to both cells | down regulated
